Measurements taken from doi:10.1101/2025.07.24.666388, “Small Molecule Activators of Protein Phosphatase 2A Exert Global Stabilising Effects on the Scaffold PR65” (bioRxiv, 2025).

Molecular target: T1, PR65 (PP2A scaffold subunit A) (Homo sapiens, UniProt P30153)
T1 construct: gene PPP2R1A; WT PR65, 15 HEAT repeats (GST tag cleaved); ybbR-tagged PR65 for optical tweezers
Test: fluorescence polarisation (PR65 titrated into fluorescent ATUX-8385); also nanoDSF shift and optical tweezers
Format: binding

T1 sequence (P30153 2-589): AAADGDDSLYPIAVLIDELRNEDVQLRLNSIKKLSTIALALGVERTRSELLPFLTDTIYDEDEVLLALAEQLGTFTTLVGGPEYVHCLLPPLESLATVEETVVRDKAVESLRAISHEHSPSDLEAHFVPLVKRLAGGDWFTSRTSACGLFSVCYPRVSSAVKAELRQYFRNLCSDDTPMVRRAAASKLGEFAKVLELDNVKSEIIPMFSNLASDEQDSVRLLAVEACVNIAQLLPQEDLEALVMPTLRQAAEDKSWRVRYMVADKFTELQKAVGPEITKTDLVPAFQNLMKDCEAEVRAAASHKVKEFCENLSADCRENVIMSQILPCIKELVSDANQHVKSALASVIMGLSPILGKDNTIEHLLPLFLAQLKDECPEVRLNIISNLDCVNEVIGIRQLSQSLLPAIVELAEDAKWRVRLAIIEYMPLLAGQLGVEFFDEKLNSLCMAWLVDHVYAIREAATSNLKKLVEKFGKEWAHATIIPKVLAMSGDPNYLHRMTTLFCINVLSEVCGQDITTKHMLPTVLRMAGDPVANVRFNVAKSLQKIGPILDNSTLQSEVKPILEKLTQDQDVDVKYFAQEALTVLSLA

Kd: 4.7 ± 1.1 µM
SMILES: O=S(=O)(NC1CNCC(n2c3ccc(F)cc3c3cc(F)ccc32)C1O)c1ccc(OC(F)(F)F)cc1 (stereo not shown) [ATUX-8385]
